This assay concerns the target T1, Endothelial lipase (Homo sapiens, UniProt Q9Y5X9).
T1 sequence (Q9Y5X9 whole entry): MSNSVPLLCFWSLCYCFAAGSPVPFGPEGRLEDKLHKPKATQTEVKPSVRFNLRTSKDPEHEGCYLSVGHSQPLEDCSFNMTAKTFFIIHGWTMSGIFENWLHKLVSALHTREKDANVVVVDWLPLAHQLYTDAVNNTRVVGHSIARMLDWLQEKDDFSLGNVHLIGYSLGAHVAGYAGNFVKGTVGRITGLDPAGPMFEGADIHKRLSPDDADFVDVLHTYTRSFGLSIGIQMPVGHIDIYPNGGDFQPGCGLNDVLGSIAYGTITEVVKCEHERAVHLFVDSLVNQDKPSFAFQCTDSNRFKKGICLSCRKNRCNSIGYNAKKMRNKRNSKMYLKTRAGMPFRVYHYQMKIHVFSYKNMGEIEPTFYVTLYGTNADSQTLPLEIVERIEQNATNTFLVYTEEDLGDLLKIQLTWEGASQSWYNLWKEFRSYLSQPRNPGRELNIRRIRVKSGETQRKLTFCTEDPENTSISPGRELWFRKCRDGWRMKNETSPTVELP
Kind of assay: Biological Assay: Endothelial lipase activity was measured using a fluorescent substrate, A10070, (Invitrogen, CA) doped into an artificial vesicle containing DMPG (Avanti Polar Lipids) as the excipient. Vesicles were prepared by combining 285 uL, of 1 mM DMPG in a 1:1 mixture of MeOH and CHCl3 with 15 uL, of 1 mM A10070 in a 1:1 mixture of MeOH and CHCl3. The mixture was dried under nitrogen and resuspended in 150 uL, of 50 mM HEPES pH 8.0 buffer containing 100 mM NaCl and 0.2 mM EDTA. The sample was allowed to sit at rt for 15 min and then was sonicated 3x4 mins on ice with a Branson Sonicator using duty cycle 1. This preparation provides vesicles with a mole fraction of 0.05 for the FRET substrate.The enzymatic assay was measured using white, opaque 96-well half area plates. Each well contained 60 uL, of assay buffer (50 mM HEPES pH 8.0, 50 mM NaCl and 1 mM CaCl2) and 2 ul of a DMSO solution containing compound of interest. Conditioned media obtained from HT-1080 cells. Format: cell-based.

What is called IC50 is the midpoint of a concentration-inhibition curve. As for `O=C(NC(c1nnc(CS(=O)(=O)O)o1)c1nc2ccc(-c3ccccc3)cc2s1)c1ccc(C(F)(F)F)cc1` (stereo not drawn), the IC50 is < 10 nM.

Take `CC(=O)NC(c1nnc(C2CN(C(=O)OC(C)(C)C)C2)o1)c1nc2ccc(-c3ccccc3)cc2s1` (stereo not drawn): the 50% inhibitory concentration (IC50) is < 10 nM.

Take `CC(C)(C)OC(=O)NC(c1nnc(CNS(N)(=O)=O)o1)c1nc2ccc(-c3ccccc3)cc2s1` (stereo not drawn): the IC50 is < 10 nM.

The values are drawn from ChEMBL document CHEMBL3886260, “Amide or urea containing benzothiazole inhibitors of endothelial lipase” (2015).
